From US20240108725A1, “METHOD FOR TREATING CANCER AND SYSTEM FOR SAME” (OTSUKA MEDICAL DEVICES CO., LTD, priority 2020, published 2024)

Test system: C6 cells
Assay: Rate of dead cells after 5-ALA PDT in erythrocyte solution, C6 cells, Example 3
Format: cell-based, rat
Procedure: C6 cells or human leukemia cell line TL-Oml cells were cultured in 2.5% FBS/F-12K medium (C6 cells) or 10% FBS/RPMI1640 (TL-Oml cells) supplemented with 5-ALA to a final concentration of 0.125 to 0.5 mM in a 5% CO2 incubator at 37° C. for 4 hours. After the culture, the cells were removed with a 0.25% trypsin-EDTA solution, and the collected cells were adjusted to 2×10^7 cells/mL with an erythrocyte solution (a solution in which erythrocytes and PBS were mixed at a ratio of 45:55). The cell suspension thus prepared was injected into a Tygon tube (inner diameter: 0.79 mm), wrapped around a light irradiator, and irradiated with light having a wavelength of 630 nm so that the irradiation energy density was 0.5 to 500 J/cm^2. After the irradiation, an ammonium chloride solution was added to the cell suspension to hemolyze the erythrocytes. Cells before the PDT treatment, after the PDT treatment, and after 24-hour culture were stained with the FITC Annexin V Apoptosis Detection Kit I and the rate of dead cells was analyzed with a flow cytometer.

[1] = 5-ALA 0.125 mM, 20 J/cm^2, 24 hours after irradiation
[2] = 5-ALA 0.125 mM, 20 J/cm^2, immediately after irradiation
[3] = 5-ALA 0.125 mM, 50 J/cm^2, 24 hours after irradiation
[4] = 5-ALA 0.125 mM, 50 J/cm^2, immediately after irradiation
[5] = 5-ALA 0.125 mM, 100 J/cm^2, 24 hours after irradiation
[6] = 5-ALA 0.125 mM, 100 J/cm^2, immediately after irradiation
[7] = 5-ALA 0.125 mM, 400 J/cm^2, 24 hours after irradiation
[8] = 5-ALA 0.125 mM, 400 J/cm^2, immediately after irradiation
[9] = 5-ALA 0.125 mM, 500 J/cm^2, 24 hours after irradiation
[10] = 5-ALA 0.125 mM, 500 J/cm^2, immediately after irradiation
[11] = 5-ALA 0.25 mM, 2.5 J/cm^2, 24 hours after irradiation
[12] = 5-ALA 0.25 mM, 2.5 J/cm^2, immediately after irradiation
[13] = 5-ALA 0.25 mM, 5 J/cm^2, 24 hours after irradiation
[14] = 5-ALA 0.25 mM, 5 J/cm^2, immediately after irradiation
[15] = 5-ALA 0.25 mM, 250 J/cm^2, 24 hours after irradiation
[16] = 5-ALA 0.25 mM, 250 J/cm^2, immediately after irradiation
[17] = 5-ALA 0.25 mM, 300 J/cm^2, 24 hours after irradiation
[18] = 5-ALA 0.25 mM, 300 J/cm^2, immediately after irradiation
[19] = 5-ALA 0.25 mM, 350 J/cm^2, 24 hours after irradiation
[20] = 5-ALA 0.25 mM, 350 J/cm^2, immediately after irradiation
[21] = 5-ALA 0.5 mM, 0.5 J/cm^2, 24 hours after irradiation
[22] = 5-ALA 0.5 mM, 0.5 J/cm^2, immediately after irradiation
[23] = 5-ALA 0.5 mM, 1 J/cm^2, 24 hours after irradiation
[24] = 5-ALA 0.5 mM, 1 J/cm^2, immediately after irradiation
[25] = 5-ALA 0.5 mM, 2.5 J/cm^2, 24 hours after irradiation
[26] = 5-ALA 0.5 mM, 2.5 J/cm^2, immediately after irradiation
[27] = 5-ALA 0.5 mM, 100 J/cm^2, 24 hours after irradiation
[28] = 5-ALA 0.5 mM, 100 J/cm^2, immediately after irradiation
[29] = 5-ALA 0.5 mM, 350 J/cm^2, 24 hours after irradiation
[30] = 5-ALA 0.5 mM, 350 J/cm^2, immediately after irradiation
[31] = 5-ALA 0.5 mM, 400 J/cm^2, 24 hours after irradiation
[32] = 5-ALA 0.5 mM, 400 J/cm^2, immediately after irradiation
[33] = 5-ALA 0.5 mM, 500 J/cm^2, 24 hours after irradiation
[34] = 5-ALA 0.5 mM, 500 J/cm^2, immediately after irradiation

NCC(=O)CCC(=O)O [5-ALA, 5-aminolevulinic acid]
Annexin V+/PI+ (%) [1]: 2%
Annexin V+/PI− (%) [1]: 3%
Annexin V-/PI− (%) [1]: 95%
Annexin V+/PI+ (%) [2]: 2%
Annexin V+/PI− (%) [2]: 1%
Annexin V−/PI− (%) [2]: 97%
Annexin V+/PI+ (%) [3]: 3%
Annexin V+/PI− (%) [3]: 3%
Annexin V-/PI− (%) [3]: 94%
Annexin V+/PI+ (%) [4]: 3%
Annexin V+/PI− (%) [4]: 1%
Annexin V−/PI− (%) [4]: 95%
Annexin V+/PI+ (%) [5]: 4%
Annexin V+/PI− (%) [5]: 4%
Annexin V-/PI− (%) [5]: 92%
Annexin V+/PI+ (%) [6]: 4%
Annexin V+/PI− (%) [6]: 1%
Annexin V−/PI− (%) [6]: 95%
Annexin V+/PI+ (%) [7]: 10%
Annexin V+/PI− (%) [7]: 5%
Annexin V+/PI+ (%) [8]: 6%
Annexin V+/PI− (%) [8]: 1%
Annexin V−/PI− (%) [8]: 93%
Annexin V+/PI+ (%) [9]: 27%
Annexin V+/PI− (%) [9]: 9%
Annexin V+/PI+ (%) [10]: 17%
Annexin V+/PI− (%) [10]: 0%
Annexin V−/PI− (%) [10]: 82%
Annexin V+/PI+ (%) [11]: 2%
Annexin V+/PI− (%) [11]: 5%
Annexin V−/PI− (%) [11]: 93%
Annexin V+/PI+ (%) [12]: 2%
Annexin V+/PI− (%) [12]: 1%
Annexin V−/PI− (%) [12]: 97%
Annexin V+/PI+ (%) [13]: 5%
Annexin V+/PI− (%) [13]: 8%
Annexin V−/PI− (%) [13]: 88%
Annexin V+/PI+ (%) [14]: 3%
Annexin V+/PI− (%) [14]: 1%
Annexin V−/PI− (%) [14]: 96%
Annexin V+/PI+ (%) [15]: 59%
Annexin V+/PI− (%) [15]: 8%
Annexin V−/PI− (%) [15]: 23%
Annexin V+/PI+ (%) [16]: 70%
Annexin V+/PI− (%) [16]: 0%
Annexin V−/PI− (%) [16]: 28%
Annexin V+/PI+ (%) [17]: 86%
Annexin V+/PI− (%) [17]: 4%
Annexin V−/PI− (%) [17]: 10%
Annexin V+/PI+ (%) [18]: 83%
Annexin V+/PI− (%) [18]: 0%
Annexin V−/PI− (%) [18]: 14%
Annexin V+/PI+ (%) [19]: 96%
Annexin V+/PI− (%) [19]: 1%
Annexin V−/PI− (%) [19]: 2%
Annexin V+/PI+ (%) [20]: 91%
Annexin V+/PI− (%) [20]: 0%
Annexin V−/PI− (%) [20]: 6%
Annexin V+/PI+ (%) [21]: 2%
Annexin V+/PI− (%) [21]: 3%
Annexin V−/PI− (%) [21]: 95%
Annexin V+/PI+ (%) [22]: 3%
Annexin V+/PI− (%) [22]: 2%
Annexin V−/PI− (%) [22]: 95%
Annexin V+/PI+ (%) [23]: 2%
Annexin V+/PI− (%) [23]: 3%
Annexin V−/PI− (%) [23]: 95%
Annexin V+/PI+ (%) [24]: 3%
Annexin V+/PI− (%) [24]: 1%
Annexin V−/PI− (%) [24]: 96%
Annexin V+/PI+ (%) [25]: 4%
Annexin V+/PI− (%) [25]: 4%
Annexin V−/PI− (%) [25]: 92%
Annexin V+/PI+ (%) [26]: 4%
Annexin V+/PI− (%) [26]: 1%
Annexin V−/PI− (%) [26]: 94%
Annexin V+/PI+ (%) [27]: 86%
Annexin V+/PI− (%) [27]: 6%
Annexin V−/PI− (%) [27]: 8%
Annexin V+/PI+ (%) [28]: 81%
Annexin V+/PI− (%) [28]: 2%
Annexin V−/PI− (%) [28]: 15%
Annexin V+/PI+ (%) [29]: 92%
Annexin V+/PI− (%) [29]: 4%
Annexin V−/PI− (%) [29]: 3%
Annexin V+/PI+ (%) [30]: 90%
Annexin V+/PI− (%) [30]: 0%
Annexin V−/PI− (%) [30]: 8%
Annexin V+/PI+ (%) [31]: 96%
Annexin V+/PI− (%) [31]: 2%
Annexin V−/PI− (%) [31]: 1%
Annexin V+/PI+ (%) [32]: 94%
Annexin V+/PI− (%) [32]: 0%
Annexin V−/PI− (%) [32]: 5%
Annexin V+/PI+ (%) [33]: 98%
Annexin V+/PI− (%) [33]: 2%
Annexin V−/PI− (%) [33]: 1%
Annexin V+/PI+ (%) [34]: 97%
Annexin V+/PI− (%) [34]: 0%
Annexin V−/PI− (%) [34]: 2%
